Results taken from US8653046B2, “Controlling transgene expression across the skin” (ETH Zurich, priority 2009, dated 2014).

Key:
[1] = system: macrolide-responsive control system (ET1, E-VP16; PETR3-SAMY-pA); experiment: Compatibility test: macrolide-responsive (EOFF) SAMY production in CHO-PEACE8 (pWW35, pBP100); assay type: cell-based; settings: CHO-PEACE8 transiently transfected with macrolide-responsive control system; Phl 50 μM, EM 2 μg/mL; 48 h; 100 = no inducer
From the text: To evaluate the functional compatibility of PEACE with the established tetracycline— [TETOFF; Gossen M., Bujard H., 1992, Proc Natl Acad Sci USA 89(12):5547-5551] and macrolide— [EOFF; Weber W., et al., 2002, Nat Biotechnol 20(9):901-907] responsive expression circuits CHO-PEACE8 is transiently transfected, transgenic for phloretin-responsive SEAP expression, with either the TETOFF-(pSAM200, PSV40-tTA-pA; pBP99, PhCMV*-1-SAMY-pA) or the EOFF-(PWW35, PSV40-ET1-pA; pBP100, PETR3-SAMY-pA) system set to control the Bacillus stearothermophilus-derived secreted α-amylase (SAMY) in response to tetracycline and erythromycin, respectively. SEAP and SAMY expression are scored 48 h after cultivation of the transfected populations in the presence (50 μM; 2 μg/mL) or absence of the inducer molecules (phloretin, tetracycline, erythromycin).

CHO-K1 = experiment: Toxicity of flavonoids: CHO-K1 transiently transfected with pSEAP2-Control, SEAP levels after 48 h; settings: 0, 25, 50 μM, genistein cytotoxic only at 50 μM
Experimental: (A) Toxicity of flavonoids. CHO-K1 are transiently transfected with pSEAP2-Control, and cultivated in medium supplemented with different flavonoids (0, 25, 50 μM). SEAP levels are scored after 48 h.
CHO-K1 are transiently (co-)transfected with either pMG10 (PTtgR1-SEAP-pA) and pMG11 (PSV40-TtgA1-pA), to score regulation performance, or with pSEAP2-Control (PSV40-SEAP-pA), to assess compound-related cytotoxicity, and then cultivated for 48 h in medium containing different concentrations (0, 25, 50 μM) of specific flavonoid type compounds (berberine, butylparaben, genistein, luteolin, β-naphthol, naringenin, phloretin, phloridzin or quercetin) before SEAP production is profiled (FIG. 5A).
Wild-type Chinese hamster ovary cells (CHO-K1, ATCC: CCL-61) and their derivatives are cultivated in standard medium: ChoMaster® HTS (Cell Culture Technologies, Gravesano, Switzerland) supplemented with 5% (v/v) fetal calf serum (FCS, PAN Biotech GmbH, Aidenbach, Germany, Cat. No. 3302, Lot No. P251110) and 1% (v/v) penicillin/streptomycin solution (Sigma, St Louis, Mo., USA, Cat. No. P4458). Human embryonic kidney cells (HEK-293, Mitta B., et al., 2002, Nucleic Acids Res 30(21):e113), African green monkey kidney cells (COS-7, ATCC: CRL-1651), baby hamster kidney cells (BHK-21, ATCC: CCL10), human fibrosarcoma cells (HT-1080, ATCC: CCL-121), the human keratinocyte cell line HaCaT (Boukamp P., et al., 1988, J Cell Biol 106(3):761-771) and mouse fibroblasts (NIH/3T3, ATCC: CRL-1658) are cultured in Dulbecco's modified Eagle's medium (DMEM; Invitrogen, Cat. No. 52100-39) supplemented with 10% FCS (v/v) and 1% (v/v) penicillin/streptomycin solution. Primary human foreskin fibroblasts are cultivated in DMEM supplemented with 20% FCS (v/v) and 1% (v/v) penicillin/streptomycin solution and primary human foreskin keratinocytes are cultured in chemically defined serum-free keratinocyte medium (Invitrogen, Cat. No. 10744019). All cell types are cultivated at 37° C. in a 5% CO2-containing humidified atmosphere. For transient transfection of CHO-K1, 1 μg of total plasmid DNA (for co-transfection an equal amount of each plasmid) is transfected into 50,000 cells per well of a 24-well plate according to an optimized calcium phosphate protocol (Greber D., Fussenegger M., 2007, Biotechnol Bioeng 96(5):821-834). Plasmid DNA is diluted to a total volume of 25 μL 0.5 M CaCl2 solution, which is mixed with 25 μL 2×HBS solution (50 mM HEPES, 280 mM NaCl, 1.5 mM Na2HPO4, pH 7.1). After incubation for 15 min at room temperature, the precipitates are immediately added to the well and centrifuged onto the cells (5 min at 1,200×g) to increase transfection efficiency. After 3 h, the cells are treated with 0.5 mL glycerol solution (ChoMaster® HTS medium containing 15% glycerol) for 60 sec. After washing once with phosphate-buffered saline (PBS, Dulbecco's Phosphate-Buffered Saline; Invitrogen, Cat. No. 21600-0069), cells are cultivated in 0.5 mL standard ChoMaster® HTS medium in the presence or absence of different concentrations of phloretin. For transfection of BHK-21, COS-7 and HEK-293, plasmid DNA-Ca2PO4 precipitate is prepared and applied to the cells as described above. HEK-293 and COS-7 cells are washed once with PBS after 3 h incubation with the DNA-Ca2PO4 precipitate and subsequently cultivated in standard DMEM, while BHK-21 cells are incubated overnight with the precipitates and then cultivated in DMEM medium after being washed once with PBS. […]

O=C(CCc1ccc(O)cc1)c1c(O)cc(O)cc1O [phloretin, 3-[4-hydroxyphenyl]-1-[2,4,6-trihydroxyphenyl]-1-propanone]
Relative SAMY Production (%) [1]: 100.6 ± 7.0% | compound-related cytotoxicity / cell viability (CHO-K1): do not reduce cell viability
